Test results taken from the supplement of paper PMC10307832.

Legend:
Experiment in all cases: relative viability (nuclei count vs DMSO), 5 days (fraction); higher = more cells survive
[1] = compound: O=C(C[C@H]1NCCC[C@@H]1O)Cn1cnc2cc(Br)c(Cl)cc2c1=O (racemic) [Halofuginone] + CC(C)C[C@H](NC(=O)[C@H](Cc1ccccc1)NC(=O)c1cnccn1)B(O)O [Bortezomib] (partner 0.002 µM)
Method in brief: (§1)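 Each reported value is a median over duplicate plates. It expresses relative viability: treated-well nuclei count divided by vehicle-well nuclei count. Lung cancer cell lines in 1536-well plates were dosed by pin tool a day after seeding, alone with one drug or with a fixed anchor-drug dose plus five library-drug doses (not always all listed) in √10 steps, and nuclei were counted after 5 days.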

[2] = compound: O=C(C[C@H]1NCCC[C@@H]1O)Cn1cnc2cc(Br)c(Cl)cc2c1=O (racemic) [Halofuginone] + Nc1ncn([C@H]2C[C@H](O)[C@@H](CO)O2)c(=O)n1 [Decitabine] (partner 2 µM)
Method in brief: as §1

Cediranib + Crizotinib = compound: COc1cc2c(Oc3ccc4[nH]c(C)cc4c3F)ncnc2cc1OCCCN1CCCC1 [Cediranib] + C[C@@H](Oc1cc(-c2cnn(C3CCNCC3)c2)cnc1N)c1c(Cl)ccc(F)c1Cl [Crizotinib] (partner 1 µM)
Method in brief: as §1

Halofuginone + Lapatinib = compound: O=C(C[C@H]1NCCC[C@@H]1O)Cn1cnc2cc(Br)c(Cl)cc2c1=O (racemic) [Halofuginone] + CS(=O)(=O)CCNCc1ccc(-c2ccc3ncnc(Nc4ccc(OCc5cccc(F)c5)c(Cl)c4)c3c2)o1 [Lapatinib] (partner 2 µM)
Method in brief: as §1

UMC-11
relative viability ([1]; first compound 0.001 µM): 0.683
relative viability ([1]; first compound 0.003162 µM): 0.775
relative viability ([1]; first compound 0.01 µM): 0.684
relative viability ([1]; first compound 0.03162 µM): 0.689
relative viability ([1]; first compound 0.1 µM): 0.645
relative viability ([2]; first compound 0.001 µM): 0.646
relative viability ([2]; first compound 0.003162 µM): 0.848
relative viability ([2]; first compound 0.01 µM): 0.59
relative viability ([2]; first compound 0.03162 µM): 0.604
relative viability ([2]; first compound 0.1 µM): 0.426
relative viability (Cediranib + Crizotinib; first compound 0.04 µM): 0.612
relative viability (Cediranib + Crizotinib; first compound 0.1265 µM): 0.573
relative viability (Cediranib + Crizotinib; first compound 0.4 µM): 0.512
relative viability (Cediranib + Crizotinib; first compound 1.265 µM): 0.656
relative viability (Cediranib + Crizotinib; first compound 4 µM): 0.427
relative viability (Halofuginone + Lapatinib; first compound 0.001 µM): 1.02
relative viability (Halofuginone + Lapatinib; first compound 0.003162 µM): 0.997
relative viability (Halofuginone + Lapatinib; first compound 0.01 µM): 0.889
relative viability (Halofuginone + Lapatinib; first compound 0.03162 µM): 0.924
relative viability (Halofuginone + Lapatinib; first compound 0.1 µM): 0.7
